# Experimental data published in patent publication US12516056B2, “Compounds for inhibition of janus kinase 1” (MANKIND PHARMA LTD., priority 2019, dated 2026).
# What was measured:
# [1] = biological target: T1, Recombinant JAK1 (Homo sapiens, UniProt P23458); experiment: JAK biochemical assay (LANCE Ultra TR-FRET), JAK1; details: recombinant JAK1, TR-FRET; read-out: Biochemical Assay (μM) JAK1
# T1 construct: purchased Carna Biosciences
# Outline: (§1)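 TR-FRET read-out of ULight substrate phosphorylation by recombinant kinase gives % inhibition relative to vehicle. The assay buffer is HEPES pH 7.5 with EGTA, MgCl2, DTT and Tween-20.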
# [2] = biological target: T2, Recombinant TYK2 (Homo sapiens, UniProt P29597); experiment: JAK biochemical assay (LANCE Ultra TR-FRET), TYK2; details: recombinant TYK2, TR-FRET; read-out: Biochemical Assay (μM) TYK2
# T2 construct: purchased Carna Biosciences
# T2 sequence (P29597 whole entry): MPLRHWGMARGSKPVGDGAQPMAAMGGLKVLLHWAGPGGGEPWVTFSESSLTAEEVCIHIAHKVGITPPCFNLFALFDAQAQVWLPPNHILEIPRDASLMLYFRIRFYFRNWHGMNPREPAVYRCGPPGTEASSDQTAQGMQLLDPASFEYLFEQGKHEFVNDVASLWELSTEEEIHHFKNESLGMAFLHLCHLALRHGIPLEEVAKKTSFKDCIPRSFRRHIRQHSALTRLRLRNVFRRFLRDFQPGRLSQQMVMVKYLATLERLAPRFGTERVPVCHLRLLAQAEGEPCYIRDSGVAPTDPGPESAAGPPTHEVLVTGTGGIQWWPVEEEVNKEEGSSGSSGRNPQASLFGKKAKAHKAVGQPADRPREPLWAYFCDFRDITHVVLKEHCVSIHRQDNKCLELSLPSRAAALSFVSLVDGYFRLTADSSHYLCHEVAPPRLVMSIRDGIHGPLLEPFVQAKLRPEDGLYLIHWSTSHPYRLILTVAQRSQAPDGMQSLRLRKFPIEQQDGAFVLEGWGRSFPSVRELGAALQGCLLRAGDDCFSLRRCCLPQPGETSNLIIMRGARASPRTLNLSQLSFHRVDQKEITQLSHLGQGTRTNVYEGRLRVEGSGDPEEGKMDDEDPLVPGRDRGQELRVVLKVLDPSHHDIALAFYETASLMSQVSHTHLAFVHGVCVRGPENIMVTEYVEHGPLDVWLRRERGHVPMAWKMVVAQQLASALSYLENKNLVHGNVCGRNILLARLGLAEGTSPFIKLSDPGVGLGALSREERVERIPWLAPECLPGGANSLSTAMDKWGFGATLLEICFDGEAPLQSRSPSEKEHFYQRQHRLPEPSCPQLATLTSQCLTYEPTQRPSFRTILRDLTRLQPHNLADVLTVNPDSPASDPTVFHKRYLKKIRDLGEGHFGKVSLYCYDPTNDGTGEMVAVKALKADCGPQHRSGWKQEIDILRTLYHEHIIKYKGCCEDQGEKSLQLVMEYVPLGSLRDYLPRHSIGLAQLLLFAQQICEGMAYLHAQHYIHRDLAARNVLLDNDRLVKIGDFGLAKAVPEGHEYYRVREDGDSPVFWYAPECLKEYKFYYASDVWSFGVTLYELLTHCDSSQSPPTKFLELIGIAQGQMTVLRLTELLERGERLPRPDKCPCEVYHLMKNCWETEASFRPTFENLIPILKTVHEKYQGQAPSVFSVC
# Outline: as §1
# [3] = biological target: T3, Recombinant JAK3 (Homo sapiens, UniProt P52333); experiment: JAK biochemical assay (LANCE Ultra TR-FRET), JAK3; details: recombinant JAK3, TR-FRET; read-out: Biochemical Assay (μM) JAK3
# T3 construct: purchased Carna Biosciences
# T3 sequence (P52333 1-1124): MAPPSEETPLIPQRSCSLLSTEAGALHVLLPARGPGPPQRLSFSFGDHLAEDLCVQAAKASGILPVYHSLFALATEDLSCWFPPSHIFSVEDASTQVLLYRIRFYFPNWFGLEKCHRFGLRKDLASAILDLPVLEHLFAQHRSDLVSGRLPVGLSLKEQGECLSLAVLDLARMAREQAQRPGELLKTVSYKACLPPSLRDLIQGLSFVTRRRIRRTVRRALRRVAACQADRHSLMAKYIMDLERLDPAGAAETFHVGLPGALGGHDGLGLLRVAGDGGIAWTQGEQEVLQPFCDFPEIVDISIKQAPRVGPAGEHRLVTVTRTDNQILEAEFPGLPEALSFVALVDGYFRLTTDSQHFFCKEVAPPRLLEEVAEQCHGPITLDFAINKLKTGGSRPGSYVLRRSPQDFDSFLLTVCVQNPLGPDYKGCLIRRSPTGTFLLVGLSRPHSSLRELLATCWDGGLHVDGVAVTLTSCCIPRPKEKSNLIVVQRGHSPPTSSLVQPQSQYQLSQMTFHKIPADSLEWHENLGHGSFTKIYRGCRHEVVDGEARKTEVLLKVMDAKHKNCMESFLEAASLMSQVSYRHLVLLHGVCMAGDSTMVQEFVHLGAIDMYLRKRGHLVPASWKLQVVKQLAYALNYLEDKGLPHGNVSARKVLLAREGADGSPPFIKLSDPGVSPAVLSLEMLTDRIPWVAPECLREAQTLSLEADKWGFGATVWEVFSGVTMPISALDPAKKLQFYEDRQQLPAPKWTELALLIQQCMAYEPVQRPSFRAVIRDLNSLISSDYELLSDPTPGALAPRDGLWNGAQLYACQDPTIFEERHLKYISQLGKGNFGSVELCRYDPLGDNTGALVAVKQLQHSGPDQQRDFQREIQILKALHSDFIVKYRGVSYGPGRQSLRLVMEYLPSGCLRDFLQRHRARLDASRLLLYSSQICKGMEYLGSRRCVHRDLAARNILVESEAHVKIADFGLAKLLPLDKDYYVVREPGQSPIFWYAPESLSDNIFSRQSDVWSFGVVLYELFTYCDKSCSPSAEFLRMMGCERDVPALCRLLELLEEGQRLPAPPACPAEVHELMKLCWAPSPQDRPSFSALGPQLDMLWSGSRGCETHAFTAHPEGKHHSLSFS
# Outline: as §1
# [4] = tested on: STAT5 phosphorylation by GMCSF in TF-1 cells; experiment: JAK cellular assay: STAT5 phosphorylation by GMCSF in TF-1 cells (HTRF); type: cell-based; details: Homo sapiens; TF-1 cells, GMCSF 5 ng/ml, pSTAT5 HTRF; read-out: Cell Based Assay (μM) TF-1/GMCSF/pSTAT5
# Protocol: TF-1 cells were starved overnight in OptiMEM medium with 0.5% charcoal stripped fetal bovine serum, 0.1 mM nonessential amino acids (NEAA), 1 mM sodium pyruvate and without phenol red in CO2 incubator maintained at 37° c. Next day, cells were resuspended in RPMI without phenol red and dispensed into a 96 well plate at a final cell density of 1,20,000 cells per well. Compounds were diluted in DMSO and added to cells and incubated for 30 minutes in CO2 incubator maintained at 37° c. Final DMSO concentration in cell based assay was 0.2%. Human recombinant cytokines, IL-6 (30 ng/ml) and GMCSF (5 ng/ml) were added to the plate containing cells along with compound and incubated for 20 minutes with gentle tapping at every 5 minutes once. Compound mediated effects on STAT3 and STAT5 phosphorylation was measured in the lysates prepared by using CISBIO pSTAT3 and pSTAT5 detection kits by HTRF method. Background signal obtained from cells which were not activated with cytokines, was subtracted from vehicle controls and compound treated wells.
# [5] = biological target: T4, Recombinant JAK2 (Homo sapiens, UniProt O60674); experiment: JAK biochemical assay (LANCE Ultra TR-FRET), JAK2; details: recombinant JAK2, TR-FRET; read-out: Biochemical Assay (μM) JAK2
# T4 construct: purchased Carna Biosciences
# T4 sequence (O60674 whole entry): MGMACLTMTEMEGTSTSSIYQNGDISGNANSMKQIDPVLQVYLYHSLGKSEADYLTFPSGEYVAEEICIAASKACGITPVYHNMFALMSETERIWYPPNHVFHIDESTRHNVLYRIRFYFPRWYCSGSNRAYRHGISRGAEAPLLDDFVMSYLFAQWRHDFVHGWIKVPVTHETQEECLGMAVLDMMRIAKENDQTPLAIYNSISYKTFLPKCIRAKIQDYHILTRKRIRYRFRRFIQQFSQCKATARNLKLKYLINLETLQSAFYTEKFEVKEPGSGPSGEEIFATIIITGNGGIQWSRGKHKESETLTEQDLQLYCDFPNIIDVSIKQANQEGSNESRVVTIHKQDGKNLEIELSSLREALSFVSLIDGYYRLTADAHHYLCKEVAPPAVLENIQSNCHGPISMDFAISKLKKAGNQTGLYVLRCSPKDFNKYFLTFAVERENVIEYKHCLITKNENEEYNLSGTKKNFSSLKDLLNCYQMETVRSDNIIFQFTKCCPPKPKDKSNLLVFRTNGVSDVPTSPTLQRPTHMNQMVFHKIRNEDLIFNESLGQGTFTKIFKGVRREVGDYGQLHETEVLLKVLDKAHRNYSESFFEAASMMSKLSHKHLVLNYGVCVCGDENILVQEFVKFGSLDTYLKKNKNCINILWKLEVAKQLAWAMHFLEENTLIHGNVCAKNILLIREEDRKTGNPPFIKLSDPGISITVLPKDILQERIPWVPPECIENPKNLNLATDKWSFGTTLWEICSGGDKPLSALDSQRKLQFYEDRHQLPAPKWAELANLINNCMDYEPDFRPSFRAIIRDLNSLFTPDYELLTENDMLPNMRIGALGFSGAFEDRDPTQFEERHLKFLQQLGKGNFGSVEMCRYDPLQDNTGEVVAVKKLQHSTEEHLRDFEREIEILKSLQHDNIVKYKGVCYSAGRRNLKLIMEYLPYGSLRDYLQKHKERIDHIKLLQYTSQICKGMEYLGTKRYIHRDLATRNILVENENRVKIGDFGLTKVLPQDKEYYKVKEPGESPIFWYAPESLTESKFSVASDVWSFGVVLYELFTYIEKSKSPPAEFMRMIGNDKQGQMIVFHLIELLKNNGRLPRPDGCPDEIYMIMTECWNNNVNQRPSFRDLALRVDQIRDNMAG
# Outline: as §1
# [6] = tested on: STAT3 phosphorylation by IL-6 in TF-1 cells; experiment: JAK cellular assay: STAT3 phosphorylation by IL-6 in TF-1 cells (HTRF); type: cell-based; details: Homo sapiens, TF-1, TF-1 cells, IL-6 30 ng/ml, pSTAT3 HTRF; read-out: Cell Based Assay (μM) TF-1/IL-6/pSTAT3
# Outline: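 TF-1 cells starved overnight in low-serum OptiMEM, then 120,000/well in RPMI, preincubated with compound 30 min at 37 °C (0.2% DMSO final). Stimulation 20 min with IL-6 30 ng/ml (pSTAT3) or GMCSF 5 ng/ml (pSTAT5); lysate phospho-STAT by HTRF, unstimulated background subtracted.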
# T1 sequence (P23458 whole entry): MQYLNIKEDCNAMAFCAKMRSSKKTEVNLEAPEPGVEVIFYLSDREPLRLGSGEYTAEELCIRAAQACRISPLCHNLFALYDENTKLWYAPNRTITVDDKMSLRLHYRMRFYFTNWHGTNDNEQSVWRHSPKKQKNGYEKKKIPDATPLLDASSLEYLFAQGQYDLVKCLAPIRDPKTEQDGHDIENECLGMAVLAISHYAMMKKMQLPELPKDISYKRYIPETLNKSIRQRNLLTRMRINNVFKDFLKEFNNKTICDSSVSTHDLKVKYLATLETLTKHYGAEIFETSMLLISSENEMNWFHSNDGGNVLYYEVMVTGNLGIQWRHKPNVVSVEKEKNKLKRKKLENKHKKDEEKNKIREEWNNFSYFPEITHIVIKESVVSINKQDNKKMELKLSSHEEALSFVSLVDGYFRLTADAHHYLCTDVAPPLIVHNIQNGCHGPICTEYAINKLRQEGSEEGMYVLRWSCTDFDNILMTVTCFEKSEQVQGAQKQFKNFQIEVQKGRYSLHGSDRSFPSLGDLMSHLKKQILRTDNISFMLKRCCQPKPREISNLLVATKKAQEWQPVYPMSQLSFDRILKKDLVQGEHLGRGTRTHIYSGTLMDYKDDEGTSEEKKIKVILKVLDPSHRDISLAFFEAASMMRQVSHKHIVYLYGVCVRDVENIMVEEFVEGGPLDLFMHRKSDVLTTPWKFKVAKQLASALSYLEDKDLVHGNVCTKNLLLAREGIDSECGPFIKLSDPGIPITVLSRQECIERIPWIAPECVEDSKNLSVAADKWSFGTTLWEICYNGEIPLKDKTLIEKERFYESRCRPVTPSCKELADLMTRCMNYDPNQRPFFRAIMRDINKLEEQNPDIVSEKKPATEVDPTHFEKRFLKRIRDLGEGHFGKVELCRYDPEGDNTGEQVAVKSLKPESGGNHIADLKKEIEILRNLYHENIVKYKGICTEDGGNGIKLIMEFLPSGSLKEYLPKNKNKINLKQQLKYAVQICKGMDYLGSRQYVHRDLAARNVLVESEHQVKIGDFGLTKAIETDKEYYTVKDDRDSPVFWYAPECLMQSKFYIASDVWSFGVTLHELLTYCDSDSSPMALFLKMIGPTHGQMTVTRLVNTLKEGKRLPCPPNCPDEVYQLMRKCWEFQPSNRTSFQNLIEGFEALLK
IC50 [1] [µM],IC50 [2] [µM],IC50 [3] [µM],IC50 [4] [µM],IC50 [5] [µM],IC50 [6] [µM],SMILES
> 1,> 0.5,> 1,> 10,< 0.5,> 10,"N#CC1CCN(C(=O)n2cc(-c3ccnc4[nH]c(=O)[nH]c34)cn2)C1 (stereo not drawn) [Example 1055, 1-(4-(2-oxo-2,3-dihydro-1H-imidazo[4,5-b]pyridin-7-yl)-1H-pyrazole-1-carbonyl)pyrrolidine-3-carbonitrile]"
< 0.5,> 0.5,< 0.5,> 10,< 0.5,> 10,"N#CC1CC(NC(=O)n2cc(-c3ccnc4[nH]c(=O)[nH]c34)cn2)C1 (stereo not drawn) [Example 1056, N-(3-cyanocyclobutyl)-4-(2,3-dihydro-2-oxo-1H-imidazo[4,5-b]pyridin-7-yl)-1H-Pyrazole-1-carboxamide]"
> 1,> 10,> 10,> 10,> 1,> 10,"CC(NC(=O)n1cc(-c2ccnc3[nH]c(=O)[nH]c23)cn1)C(=O)N1CC(C#N)C1 (stereo not drawn) [Example 1058, N-(1-(3-cyanoazetidin-1-yl)-1-oxopropan-2-yl)-4-(2-oxo-2,3-dihydro-1H-imidazo[4,5-b]pyridin-7-yl)-1H-pyrazole-1-carboxamide]"
> 1,> 10,> 0.5,> 10,> 0.5,> 10,"N#CC1CCN(C(=O)n2cc(-c3ccnc4[nH]cnc34)cn2)CC1 [Example 1067, 1-(4-(3H-imidazo[4,5-b]pyridin-7-yl)-1H-pyrazole-1-carbonyl)piperidine-4-carbonitrile]"
> 1,> 1,> 1,> 10,> 1,> 10,"CC(CN1CC(C#N)C1)NC(=O)n1cc(-c2ccnc3[nH]cnc23)cn1 (stereo not drawn) [Example 1068, N-(1-(3-cyanoazetidin-1-yl)propan-2-yl)-4-(3H-imidazo[4,5-b]pyridin-7-yl)-1H-pyrazole-1-carboxamide]"
> 0.5,> 0.5,> 0.5,> 10,< 0.5,> 10,"N#CC(NC(=O)n1cc(-c2ccnc3[nH]cnc23)cn1)c1ccccc1 (stereo not drawn) [Example 1070, N-(cyano(phenyl)methyl)-4-(3H-imidazo[4,5-b]pyridin-7-yl)-1H-pyrazole-1-carboxamide]"
> 1,> 0.5,> 0.5,> 10,> 0.5,> 1,"CC(C)[C@@H](C#N)NC(=O)n1cc(-c2ccnc3[nH]cnc23)cn1 [Example 1073, N-((S)-1-cyano-2-methylpropyl)-4-(3H-imidazo[4,5-b]pyridin-7-yl)-1H-pyrazole-1-carboxamide]"
> 10,> 1,> 1,> 10,> 1,> 10,"CC1CN(C(=O)n2cc(-c3ccnc4[nH]cnc34)cn2)CC1C#N (stereo not drawn) [Example 1074, 1-(4-(3H-imidazo[4,5-b]pyridin-7-yl)-1H-pyrazole-1-carbonyl)-4-methylpyrrolidine-3-carbonitrile]"
0.046,> 1,< 0.5,> 10,0.19,3.1,"N#CCc1coc(-n2cc(-c3ccnc4[nH]cnc34)cn2)n1 [Example 1075, 2-(2-(4-(3H-imidazo[4,5-b]pyridin-7-yl)-1H-pyrazol-1-yl)oxazol-4-yl)acetonitrile]"
0.037,> 1,< 0.5,> 10,0.085,6,"N#CCc1csc(-n2cc(-c3ccnc4[nH]cnc34)cn2)n1 [Example 1076, 2-(2-(4-(3H-imidazo[4,5-b]pyridin-7-yl)-1H-pyrazol-1-yl)thiazol-4-yl)acetonitrile]"
